Experimental data reported in patent US20240327393A1 (SIRONAX LTD., priority 2021, published 2024).

The compounds below were run on HT-1080 (ATCC, CCL-121) cells (assay: HT-1080 cell viability assay with ferroptosis inducer RSL3 (Cell Titer-Glo)). Settings: Homo sapiens; HT-1080 cells treated with RSL3; 3-fold, 10-point dilution, 1.1 μM highest concentration; Table 2; read-out: EC50 (nM), ferroptosis inhibitory activity.
Format: cell-based
Outline: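 EC50 was derived by sigmoidal dose-response regression of CellTiter-Glo luminescence viability, expressed relative to untreated wells. Compounds were tested in a ten-point, threefold dilution series (highest 1.1 μM) in the presence of the ferroptosis inducer RSL3. HT-1080 cells had been seeded at 6000 per well and grown overnight first.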

SMILES | EC50 [nM]
Cc1cc(Nc2ccc3c(c2)OCC(=O)N3C)cc(C)c1N1CCC(C(F)(F)F)CC1 [Compound 155, 7-((3,5-dimethyl-4-(4-(trifluoromethyl)piperidin-1-yl)phenyl)amino)-4-methyl-2H-benzo[b][1,4]oxazin-3(4H)-one] | 0.1 to 100
CCCOc1cc(Nc2ccc3c(c2)OCC(=O)N3C)ccc1N1CCC(C(F)(F)F)CC1 [Compound 8, 4-methyl-7-((3-propoxy-4-(4-(trifluoromethyl)piperidin-1-yl)phenyl)amino)-2H-benzo[b][1,4]oxazin-3(4H)-one] | 0.1 to 100
CC1CN(c2ccc(Nc3ccc4c(c3)oc(=O)n4C)cc2)CC(C)O1 (stereo not drawn) [Compound 317, 6-((4-(2,6-dimethylmorpholino)phenyl)amino)-3-methylbenzo[d]oxazol-2(3H)-one] | 0.1 to 100
CN1C(=O)COc2cc(Nc3ccc(N4CCC(C(F)(F)F)CC4)cc3F)ccc21 [Compound 34, 7-((2-fluoro-4-(4-(trifluoromethyl)piperidin-1-yl)phenyl)amino)-4-methyl-2H-benzo[b][1,4]oxazin-3(4H)-one] | 100 to 1000
CC1CCN(c2ccc(Nc3ccc4c(c3)ncn4C)cc2)CC1 [Compound 285, 1-methyl-N-(4-(4-methylpiperidin-1-yl)phenyl)-1H-benzo[d]imidazol-5-amine] | 0.1 to 100
C#Cc1ccc(Nc2ccc3c(c2)n(C)c(=O)n3C)cc1 [Compound 290, 5-((4-ethynylphenyl)amino)-1,3-dimethyl-1,3-dihydro-2H-benzo[d]imidazol-2-one] | 0.1 to 100
CCN(CC)c1ccc(Nc2ccc3c(c2)OCC(=O)N3C)cc1 [Compound 22, 7-((4-(diethylamino)phenyl)amino)-4-methyl-2H-benzo[b][1,4]oxazin-3(4H)-one] | 0.1 to 100
CC1CN(c2ccc(Nc3ccc4c(c3)OCC(=O)N4)cc2)CCO1 (stereo not drawn) [Compound 148, 7-((4-(2-methylmorpholino)phenyl)amino)-2H-benzo[b][1,4]oxazin-3(4H)-one] | 0.1 to 100
COc1cc(Nc2ccc3c(c2)CN(C)C3=O)ccc1N1CCC(C(F)(F)F)CC1 [Compound 243, 5-((3-methoxy-4-(4-(trifluoromethyl)piperidin-1-yl)phenyl)amino)-2-methylisoindolin-1-one] | 0.1 to 100
Cn1c(=O)n(C)c2cc(Nc3ccc(N4CCC(O)(C(F)(F)F)CC4)cc3)ccc21 [Compound 332, 5-((4-(4-hydroxy-4-(trifluoromethyl)piperidin-1-yl)phenyl)amino)-1,3-dimethyl-1,3-dihydro-2H-benzo[d]imidazol-2-one] | 0.1 to 100
CNCCCn1c(=O)oc2ccc(Nc3ccc(N4CC(C)OC(C)C4)cc3)cc21 (stereo not drawn) [Compound 416] | 0.1 to 100
Cn1ncc2cc(Nc3ccc(N4CCC(C(F)(F)F)CC4)cc3)ccc21 [Compound 364, 1-methyl-N-(4-(4-(trifluoromethyl)piperidin-1-yl)phenyl)-1H-indazol] | 0.1 to 100
CCC1Oc2cc(Nc3ccc(N4CCC(C(F)(F)F)CC4)cc3)ccc2N(C)C1=O (stereo not drawn) [Compound 68, 2-ethyl-4-methyl-7-((4-(4-(trifluoromethyl)piperidin-1-yl)phenyl)amino)-2H-benzo[b][1,4]oxazin-3(4H)-one] | 0.1 to 100
CC1CCN(c2ccc(Nc3ccc4oc(=O)n(C)c4c3)cc2)CC1 [Compound 286, 3-methyl-5-((4-(4-methylpiperidin-1-yl)phenyl)amino)benzo[d]oxazol-2(3H)-one] | 0.1 to 100
CCN1Cc2ccc(Nc3ccc(N4CCCCC4)c(C(F)(F)F)c3)cc2C1 [Compound 177, 2-ethyl-N-(4-(piperidin-1-yl)-3-(trifluoromethyl)phenyl)isoindolin-5-amine] | 0.1 to 100
Cc1cc(Nc2cc(F)c3c(c2)OCC(=O)N3C)ccc1N1CC(C)OC(C)C1 (stereo not drawn) [Compound 132, 7-((4-(2,6-dimethylmorpholino)-3-methylphenyl)amino)-5-fluoro-4-methyl-2H-benzo[b][1,4]oxazin-3(4H)-one] | 0.1 to 100
Cn1c(=O)oc2cc(Nc3ccc4c(c3)n(C)c(=O)n4C)ccc21 [Compound 344, 6-((1,3-dimethyl-2-oxo-2,3-dihydro-1H-benzo[d]imidazol-5-yl)amino)-3-methylbenzo[d]oxazol-2(3H)-one] | 0.1 to 100
Cc1cc(N2CC(C)OC(C)C2)ccc1Nc1ccc2[nH]ncc2c1 (stereo not drawn) [Compound 443, N-(4-(2,6-dimethylmorpholino)-2-methylphenyl)-1H-indazol-5-amine] | 0.1 to 100
CNCCCn1c(=O)oc2ccc(Nc3ccc(N4CCC(C(F)(F)F)CC4)cc3)cc21 [Compound 418, 3-(3-(methylamino)propyl)-5-((4-(4-(trifluoromethyl)piperidin-1-yl)phenyl)amino)benzo[d]oxazol-2(3H)-one] | 0.1 to 100
CC1CN(c2ccc(Nc3ccc4c(c3)nc(N)n4C)cc2)CC(C)O1 (stereo not drawn) [Compound 435] | 0.1 to 100
COCCCN1C(=O)COc2cc(Nc3ccc(N4CCC(C(F)(F)F)CC4)cc3)ccc21 [Compound 10, 4-(3-methoxypropyl)-7-((4-(4-(trifluoromethyl)piperidin-1-yl)phenyl)amino)-2H-benzo[b][1,4]oxazin-3(4H)-one] | 0.1 to 100
Cn1c(=O)oc2ccc(Nc3ccc(N4CCCCC4)cc3)cc21 [Compound 389, 3-methyl-5-((4-(piperidin-1-yl)phenyl)amino)benzo[d]oxazol-2(3H)-one] | 0.1 to 100
CNCCCn1cc2cc(Nc3ccc(N4CCC(C(F)(F)F)CC4)cc3)ccc2n1 [Compound 415, 2-(3-(methylamino)propyl)-N-(4-(4-(trifluoromethyl)piperidin-1-yl)phenyl)-2H-indazol-5-amine] | 0.1 to 100
CN1CCN(CC(=O)N2CCc3cc(Nc4ccccc4)ccc3C2)CC1 [Compound 107, 2-(4-methylpiperazin-1-yl)-1-(6-(phenylamino)-3,4-dihydroisoquinolin-2(1H)-yl)ethan-1-one] | 0.1 to 100
Cn1c(=O)oc2cc(Nc3ccc(N4CC5(CCCC5)C4)cc3)ccc21 [Compound 316, 6-((4-(2-azaspiro[3.4]octan-2-yl)phenyl)amino)-3-methy/benzo[d]oxazol-2′3H-one] | 0.1 to 100
NC(=O)CCn1ncc2cc(Nc3ccc(N4CCC(C(F)(F)F)CC4)cc3)ccc21 [Compound 412, 3-(5-((4-(4-(trifluoromethyl)piperidin-1-yl)phenyl)amino)-1H-indazol-1-yl)propanamide] | 0.1 to 100
CN(C)c1cc(Nc2ccc3c(=O)n(C)[nH]c3c2)ccc1N1CCCCC1 [Compound 304, 6-((3-(dimethylamino)-4-(piperidin-1-yl)phenyl)amino)-2-methyl-1,2-dihydro-3H-indazol-3-one] | 0.1 to 100

Same assay, conditions: Homo sapiens; HT-1080 cells treated with RSL3; 3-fold, 10-point dilution, 1.1 μM highest concentration; Table 3; read-out: EC50 (nM), ferroptosis inhibitory activity

SMILES | EC50 [nM]
O=C1COc2cc(Nc3ccc(N4CCC(F)CC4)cc3)cnc2N1 [Compound 554, 7-((4-(4-fluoropiperidin-1-yl)phenyl)amino)-2H-pyrido[3,2-b][1,4]oxazin-3(4H)-one] | 0.1 to 100
Cc1cc(N2C[C@@H](C)O[C@@H](C)C2)ccc1Nc1ccc2cnn(C)c2c1 [Compound 638, N-(4-((2S,6R)-2,6-dimethylmorpholino)-2-methylphenyl)-1-methyl-1H-indazol-6-amine] | 0.1 to 100
Cc1cc(N2CCC(C)CC2)ccc1Nc1cnc2c(c1)OCC(=O)N2 [Compound 575, 7-((2-methyl-4-(4-methylpiperidin-1-yl)phenyl)amino)-2H-pyrido[3,2-b][1,4]oxazin-3(4H)-one] | 0.1 to 100
Cc1cc(N2CCC(C(F)(F)F)CC2)ccc1Nc1ccc2c(c1)OCCNC2=O [Compound 531, 8-((2-methyl-4-(4-(trifluoromethyl)piperidin-1-yl)phenyl)amino)-3,4-dihydrobenzo[f][1,4]oxazepin-5(2H)-one] | 0.1 to 100
Cc1cc(N2CCC(C(F)(F)F)CC2)ccc1Nc1ccc2c(c1)OC(CO)C(=O)N2 (stereo not drawn) [Compound 602, 2-(hydroxymethyl)-7-((2-methyl-4-(4-(trifluoromethyl)piperidin-1-yl)phenyl)amino)-2H-benzo[b][1,4]oxazin-3(4H)-one] | 0.1 to 100
Cc1cc(N2C[C@@H](C)O[C@@H](C)C2)ccc1Nc1ccc2cn(C)nc2c1 [Compound 637, N-(4-((2S,6R)-2,6-dimethylmorpholino)-2-methylphenyl)-2-methyl-2H-indazol-6-amine] | 0.1 to 100
CCC1Oc2cc(Nc3ccc(C4CCOCC4)cc3)ccc2N(C)C1=O (stereo not drawn) [Compound 472, 2-ethyl-4-methyl-7-((4-(tetrahydro-2H-pyran-4-yl)phenyl)amino)-2H-benzo[b][1,4]oxazin-3(4H)-one] | 0.1 to 100
Cc1c(Nc2ccc(N3CCC(C(F)(F)F)CC3)cc2)ccc2c1OCC(=O)N2 [Compound 568, 8-methyl-7-((4-(4-(trifluoromethyl)piperidin-1-yl)phenyl)amino)-2H-benzo[b] [1,4] oxazin-3(4H)-one] | 0.1 to 100
O=C1COc2cc(Nc3ccc(N4CCC(O)(C(F)(F)F)CC4)cc3)ccc2N1 [Compound 510, 7-((4-(4-hydroxy-4-(trifluoromethyl)piperidin-1-yl)phenyl)amino)-2H-benzo[b][1,4]oxazin-3(4H)-one] | 0.1 to 100
Cc1nc(N2CC(C)(C)OC(C)(C)C2)ccc1Nc1ccc2c(c1)OCC(=O)N2 [Compound 504] | 0.1 to 100
Cc1cc(N2CC(O)(C(F)(F)F)C2)ccc1Nc1ccc2c(c1)OCC(=O)N2 [Compound 632, 7-({4-[3-hydroxy-3-(trifluoromethyl)azetidin-1-yl]-2-methylphenyl}amino)-2,4-dihydro-1,4-benzoxazin-3-one] | 0.1 to 100
COc1cc(Nc2cc(C)c3c(c2)OCC(=O)N3)c(C)cc1N1CCC(C(F)(F)F)CC1 [Compound 548, 7-((5-methoxy-2-methyl-4-(4-(trifluoromethyl)piperidin-1-yl)phenyl)amino)-5-methyl-2H-benzo[b][1,4]oxazin-3(4H)-one] | 0.1 to 100
